pIC50: −log10 of the molar value.
Columns and labels:
Rattus norvegicus = assay: In vivo inhibition of diabetic rat sciatic nerve fructose accumulation; format: functional
Sorbitol dehydrogenase = biological target: T1, Sorbitol dehydrogenase (Homo sapiens, UniProt Q00796); assay: In vitro inhibitory activity against human SDH
T1 sequence (Q00796 whole entry): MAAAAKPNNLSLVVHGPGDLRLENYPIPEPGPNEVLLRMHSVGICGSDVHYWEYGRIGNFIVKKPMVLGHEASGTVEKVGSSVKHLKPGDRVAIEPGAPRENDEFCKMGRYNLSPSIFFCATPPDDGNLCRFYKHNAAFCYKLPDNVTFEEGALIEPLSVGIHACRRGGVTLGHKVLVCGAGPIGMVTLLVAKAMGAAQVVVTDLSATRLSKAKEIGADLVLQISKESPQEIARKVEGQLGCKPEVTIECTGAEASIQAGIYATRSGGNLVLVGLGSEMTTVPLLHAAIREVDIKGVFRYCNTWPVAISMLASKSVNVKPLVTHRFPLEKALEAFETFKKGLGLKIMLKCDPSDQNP

`CO[C@@H](C)c1nccc(N2CCN(S(=O)(=O)N(C)C)CC2)n1` gave an ED50 (Rattus norvegicus) of 9 mg/kg and a pIC50 (Sorbitol dehydrogenase) of 6.31.
Work on `C[C@@H](O)c1nccc(N2CCN(S(=O)(=O)N(C)C)CC2)n1` yielded an ED50 (Rattus norvegicus) of 1.6 mg/kg and a pIC50 (Sorbitol dehydrogenase) of 7.57.
Compound `CN(C)S(=O)(=O)N1CCN(c2ccnc(CO)n2)CC1` has an ED50 (Rattus norvegicus) of 14.1 mg/kg and a pIC50 (Sorbitol dehydrogenase) of 6.61.
With `CC(O)c1nccc(N2CCN(S(=O)(=O)N(C)C)CC2)n1` (stereo not drawn) the ED50 (Rattus norvegicus) was 2.4 mg/kg and the pIC50 (Sorbitol dehydrogenase) was 6.76.
